Assay [1] deals with DYRK1A kinase (Homo sapiens, UniProt Q13627). The experiment in a line: DYRK1A kinase activity (Ser/Thr 18 peptide Z-lyte FRET assay).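 Note: kinase activity read as coumarin/fluorescein emission ratio after development step, with unphosphorylated and phosphorylated peptide forms setting 0% and 100% controls, values from dose-response curves.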 To be noted: recombinant DYRK1A, 30 μM ATP, one hour at room temperature. Format: biochemical.
Assay [2] deals with GSK3β kinase (Homo sapiens, UniProt P49841). Briefly: GSK3β kinase activity (Ser/Thr 09 peptide Z-lyte FRET assay). It is filed as biochemical. Particulars: recombinant kinase, 46 μM ATP, one hour at room temperature; read-out: EC50.
Assay [3] has as its system SW480 colon carcinoma cells. Briefly: Cell viability assay (CellTiter-Glo). Particulars: Homo sapiens; for EC50: SW480, 96 h; for inhibition at 10 µM: SW480, read-out: percent inhibition at 10 μM. Background: Cellular ATP, detected with luciferase, serves as a proxy for viable cell number.
Assay [4] concerns Wnt-responsive Sp5-Luc reporter in SW480 colon carcinoma cells. The experiment in a line: Screening assay for Wnt activity (Sp5-Luc reporter gene assay). Particulars: Homo sapiens; for EC50: SW480; for inhibition at 10 µM: SW480, read-out: percent inhibition at 10 μM.
Assay [5] relates to IL-6. Briefly: IL-6 inhibition in LPS-stimulated human peripheral blood mononuclear cells (HTRF). Particulars: Homo sapiens, PBMC; for EC50: 22 h; for inhibition at 10 µM: read-out: percentage in parentheses after EC50 >10.
In assay [6] the test system is α-smooth muscle actin (aSMA) positive LL29 cells. Briefly: Inhibition of the fibrotic process: αSMA staining in TGF-β1 treated LL29 fibroblasts from IPF patients. Particulars: Homo sapiens, Fibroblast; for EC50: 96 h; for inhibition at 10 µM: read-out: percentage in parentheses after EC50 >10.

SMILES strings stand for the structures.

GSK3β kinase, sequence (P49841 whole entry): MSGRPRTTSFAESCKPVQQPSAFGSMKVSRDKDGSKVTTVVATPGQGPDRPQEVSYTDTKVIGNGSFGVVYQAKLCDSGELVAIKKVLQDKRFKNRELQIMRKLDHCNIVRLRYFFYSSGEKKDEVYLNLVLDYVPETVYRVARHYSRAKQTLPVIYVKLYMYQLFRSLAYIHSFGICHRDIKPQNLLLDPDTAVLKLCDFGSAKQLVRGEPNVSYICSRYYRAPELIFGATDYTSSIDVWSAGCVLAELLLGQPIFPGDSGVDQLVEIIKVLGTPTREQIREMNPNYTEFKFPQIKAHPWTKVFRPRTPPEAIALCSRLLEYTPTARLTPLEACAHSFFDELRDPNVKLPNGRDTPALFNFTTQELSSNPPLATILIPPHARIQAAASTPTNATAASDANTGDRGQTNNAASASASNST

For `Cn1cc(-c2cnc3cnc(NC(=O)[C@H]4CCCN4)cc3c2)cn1` [Compound 2782, (R)—N-(3-(1-Methyl-1H-pyrazol-4-yl)-1,7-naphthyridin-6-yl)pyrrolidine-2-carboxamide], the concentration giving a half-maximal response (EC50) in assay [1] is 0.867 µM; in assay [2], 2.45 µM; in assay [3], > 10 µM; in assay [4], > 10 µM; in assay [5] it was > 10 µM; in assay [6] it was 2.4 µM. Also, the inhibition at 10 µM came out at 18.8% in assay [3], 2.2% in assay [4] and 4.3% in assay [5].

Take `CC(C(=O)Nc1cc2cc(-c3cnn(C)c3)cnc2cn1)N1CCCCC1` (centres unmarked) [Compound 2791, N-(3-(1-Methyl-1H-pyrazol-4-yl)-1,7-naphthyridin-6-yl)-2-(piperidin-1-yl) propanamide]: the half-maximal effective concentration (EC50) was 0.513 µM in assay [1]; 3.47 µM in assay [2]; > 10 µM in assay [3]; > 10 µM in assay [4]; > 10 µM in assay [5]; 6.13 µM in assay [6]. Also, the inhibition at 10 µM in assay [3] was found to be 24.8%; in assay [4], 10.5%; in assay [5] it was 5.3%.

`CN(C)CCNc1cc(C(=O)Nc2cc3cc(-c4cnn(C)c4)cnc3cn2)ccn1` [Compound 2884, 2-((2-(Dimethylamino)ethyl)amino)-N-(3-(1-methyl-1H-pyrazol-4-yl)-1,7-naphthyridin-6-yl)isonicotinamide]: the 50% effective concentration (EC50) is 0.049 µM in assay [1]; > 10 µM in assay [2]; 3.88 µM in assay [3]; > 10 µM in assay [4]; > 10 µM in assay [5]; 5.24 µM in assay [6]. Also, the inhibition at 10 µM is 44.1% in assay [4] and 9.4% in assay [5].

With `CN(C)Cc1ccc(C(=O)Nc2cc3cc(-c4cnn(C)c4)cnc3cn2)cc1` [Compound 2890, 4-((Dimethylamino)methyl)-N-(3-(1-methyl-1H-pyrazol-4-yl)-1,7-naphthyridin-6-yl)benzamide], the EC50 in assay [1] is 0.035 µM; in assay [2], > 10 µM; in assay [3] it was 3.86 µM; in assay [4] it was 3.58 µM; in assay [5], > 10 µM; in assay [6], > 10 µM. Also, the inhibition at 10 µM was 8.6% in assay [5] and 29.4% in assay [6].

Regarding `CN1CCN(Cc2cccc(C(=O)Nc3cc4cc(-c5cnn(C)c5)cnc4cn3)c2)CC1` [Compound 2892, N-(3-(1-Methyl-1H-pyrazol-4-yl)-1,7-naphthyridin-6-yl)-3-((4-methylpiperazin-1-yl)methyl)benzamide], the EC50 in assay [1] was 0.039 µM; in assay [2] it was > 10 µM; in assay [3], > 10 µM; in assay [4], > 10 µM; in assay [5] it was > 10 µM; in assay [6], 3.96 µM. The inhibition at 10 µM worked out at 36% in assay [3], 46.9% in assay [4] and 16.5% in assay [5].

Regarding `CN1CCc2ccc(C(=O)Nc3cc4cc(-c5cnn(C)c5)cnc4cn3)cc2C1` [Compound 2922, 2-Methyl-N-(3-(1-methyl-1H-pyrazol-4-yl)-1,7-naphthyridin-6-yl)-1,2,3,4-tetrahydroisoquinoline-7-carboxamide], the 50% effective concentration (EC50) in assay [1] was 0.036 µM; in assay [2], > 10 µM; in assay [3], > 10 µM; in assay [4], 2.42 µM; in assay [5], > 10 µM; in assay [6] it was > 10 µM. Besides, the inhibition at 10 µM in assay [3] turned out to be 28.8%; in assay [5] it was 3.8%; in assay [6], 47.2%.

Regarding `Cn1cc(-c2cnc3cnc(NC(=O)c4ccc5nccnc5c4)cc3c2)cn1` [Compound 2936, N-(3-(1-Methyl-1H-pyrazol-4-yl)-1,7-naphthyridin-6-yl)quinoxaline-6-carboxamide], the half-maximal effective concentration (EC50) in assay [1], in assay [2], in assay [3], in assay [4], in assay [5] and in assay [6] was > 10 µM in each case. In addition, the inhibition at 10 µM in assay [3] was 17.8%; in assay [4], 11.9%; in assay [5], 8.3%; in assay [6] it was 21.6%.

On to `CCN(CC)CC(=O)Nc1cc2cc(-c3cnn(C)c3CN3CCCCC3)cnc2cn1` [Compound 3003, 2-(Diethylamino)-N-(3-(1-methyl-5-(piperidin-1-ylmethyl)-1H-pyrazol-4-yl)-1,7-naphthyridin-6-yl)acetamide], for which the EC50 in assay [1] is 0.067 µM; in assay [2], 1.52 µM; in assay [3], > 10 µM; in assay [4] it was > 10 µM; in assay [5], > 10 µM; in assay [6] it was > 10 µM. Further, the inhibition at 10 µM stood at 35.9% in assay [3], 33.5% in assay [4], 7.3% in assay [5] and 27.8% in assay [6].

Consider `Cn1ncc(-c2cnc3cnc(NC(=O)c4ccnc(N5CCOCC5)c4)cc3c2)c1CN1CCOCC1` [Compound 3034, N-(3-(1-Methyl-5-(morpholinomethyl)-1H-pyrazol-4-yl)-1,7-naphthyridin-6-yl)-2-morpholinoisonicotinamide], for which the EC50 in assay [1] is 0.119 µM; in assay [2], > 10 µM; in assay [3], > 10 µM; in assay [4], > 10 µM; in assay [5], > 10 µM; in assay [6], > 10 µM. The inhibition at 10 µM worked out at 10.5% in assay [3], 0% in assay [4], 9.5% in assay [5] and 31.8% in assay [6].

With `COC1CCN(CC(=O)Nc2cc3cc(-c4cn(C)nn4)cnc3cn2)CC1` [Compound 3078, 2-(4-Methoxypiperidin-1-yl)-N-(3-(1-methyl-1H-1,2,3-triazol-4-yl)-1,7-naphthyridin-6-yl)acetamide], the half-maximal effective concentration (EC50) in assay [1] was 0.207 µM; in assay [2], 0.76 µM; in assay [3], > 10 µM; in assay [4] it was > 10 µM; in assay [5] it was > 10 µM; in assay [6], > 10 µM. In addition, the inhibition at 10 µM amounted to 16% in assay [3], 11.7% in assay [4], 7.9% in assay [5] and 41% in assay [6].

`CNC(=O)c1ccc(C(=O)Nc2cc3cc(-c4cn(C)nn4)cnc3cn2)cn1` [Compound 3092, N^2-Methyl-N-(3-(1-methyl-1H-1,2,3-triazol-4-yl)-1,7-naphthyridin-6-yl) pyridine-2,5-dicarboxamide]: the 50% effective concentration (EC50) is 0.269 µM in assay [1]; > 10 µM in assay [2]; > 10 µM in assay [3]; 2.28 µM in assay [4]; > 10 µM in assay [5]; > 10 µM in assay [6]. The results for the inhibition at 10 µM in assay [3], in assay [5] and in assay [6] were 10.5%, 7.4% and 13.3%, respectively.

For the compound `CN(C)C1CCN(c2cc(C(=O)Nc3cc4cc(-c5cn(C)nn5)cnc4cn3)ccn2)CC1` [Compound 3096, 2-(4-(Dimethylamino)piperidin-1-yl)-N-(3-(1-methyl-1H-1,2,3-triazol-4-yl)-1,7-naphthyridin-6-yl)isonicotinamide], the EC50 in assay [1] was 0.119 µM; in assay [2], > 10 µM; in assay [3], 4.09 µM; in assay [4] it was 0.596 µM; in assay [5] it was > 10 µM; in assay [6], > 10 µM. For the same compound, the values for the inhibition at 10 µM in assay [5] and in assay [6] were 0% and 32.7%, respectively.

Regarding `CN1CCCN(c2cc(C(=O)Nc3cc4cc(-c5cn(C)nn5)cnc4cn3)ccn2)CC1` [Compound 3099, 2-(4-Methyl-1,4-diazepan-1-yl)-N-(3-(1-methyl-1H-1,2,3-triazol-4-yl)-1,7-naphthyridin-6-yl)isonicotinamide], the EC50 was 0.154 µM in assay [1]; > 10 µM in assay [2]; > 10 µM in assay [3]; 0.696 µM in assay [4]; > 10 µM in assay [5]; > 10 µM in assay [6]. The results for the inhibition at 10 µM in assay [3], in assay [5] and in assay [6] were 29.6%, 0% and 44.4%, respectively.

In the case of `CN1CCC(N(C)c2cc(C(=O)Nc3cc4cc(-c5cn(C)nn5)cnc4cn3)ccn2)CC1` [Compound 3102, 2-(Methyl(1-methylpiperidin-4-yl)amino)-N-(3-(1-methyl-1H-1,2,3-triazol-4-yl)-1,7-naphthyridin-6-yl)isonicotinamide], the EC50 in assay [1] is 0.088 µM; in assay [2], > 10 µM; in assay [3], 6.91 µM; in assay [4] it was > 10 µM; in assay [5], > 10 µM; in assay [6], > 10 µM. Further, the results for the inhibition at 10 µM in assay [4], in assay [5] and in assay [6] were 28.5%, 0% and 50%, respectively.

With `Cn1cnnc1-c1cnc2cnc(NC(=O)C3CCN(CCC(F)(F)F)CC3)cc2c1` [Compound 3111, N-(3-(4-Methyl-4H-1,2,4-triazol-3-yl)-1,7-naphthyridin-6-yl)-1-(3,3,3-trifluoropropyl)piperidine-4-carboxamide], the EC50 is 0.377 µM in assay [1]; 2.14 µM in assay [2]; > 10 µM in assay [3]; > 10 µM in assay [4]; > 10 µM in assay [5]; > 10 µM in assay [6]. Besides, the inhibition at 10 µM in assay [3] stood at 16.1%; in assay [4] it was 9.7%; in assay [5], 7.5%; in assay [6] it was 46.4%.

One may read the EC50 as the concentration giving half of the maximal effect.

The values above are taken from patent US10703748B2, “Diazanaphthalen-3-yl carboxamides and preparation and use thereof” (Samumed, LLC, priority 2017, dated 2020).
